Assay results as given in patent US20160281125A1, “ANTIMICROBIAL COMPOUND SUSCEPTIBILITY TEST” (priority 2013, published 2016).

What was measured:
[1] = tested on: K. pneumo 33495; assay: Selective lysis test, OD600 turbidity (Example 1); assay type: cell-based, Klebsiella pneumoniae
Method: (§1) An isolated colony from an overnight Tryptocase Soy Agar (TSA) plate of each bacterial strain was suspended in 1 ml Tryptocasc Soy Broth (TSB) in a 5 ml BD polystyrene round bottom tube. TSB cultures were incubated shaking at 37° C. overnight. Ten of the overnight culture was inoculated into lml TSB and incubated shaking at 37° C. for three hours. Two […] aliquots of each log-phase culture were then transferred to two 2 ml Eppendorf microcentrifuge tubes. One tube contained 5000 of Normal Saline (BD); the second tube contained 5000 Normal Saline with meropenem at 10 μg/ml (final concentration of meropenem of 6.67 10 μg/ml). Tubes were inverted and then incubated at 37° C. stagnant for thirty minutes. Then […] of lysis buffer (0.5% SDS in PSB) (final concentration of SDS of 0.125%) was added to each tube and the tubes were vortexed for 5 seconds. Post incubation, all tubes were spun at 10000 G for 5 minutes. Supernatant was decanted and the pellet resuspended in Normal Saline. Tubes were vortexed again. OD600 was measured using Eppendorf uvettes in a spectrophotometer. The delta between the OD600 of the normal saline control and the OD600 for the test sample exposed to meropenem in normal saline was used to determine susceptibility of the bacterial strain to meropenem.

[2] = tested on: K. pneumo 700603; assay: Selective lysis test, OD600 turbidity (Example 1); assay type: cell-based, Klebsiella pneumoniae
Method: as §1

[3] = tested on: K. pneumo 9633; assay: Selective lysis test, OD600 turbidity (Example 1); assay type: cell-based, Klebsiella pneumoniae
Method: as §1

[4] = tested on: K. oxy KPC 46532; assay: Selective lysis test, OD600 turbidity (Example 1); assay type: cell-based, Klebsiella oxytoca
Method: as §1
The tested resistant strains were Klebsiella pneumoniae carbapenemase (KPC)-producing bacteria (abbreviated “KPC”), KPC-producing Klebsiella oxytoca (abbreviated “KPC K. oxy), and Klebsiella pneumoniae producing Metallo-beta-lactamase-1 (NDM-1) (abbreviated “NDM”).

[5] = tested on: E. coli strain 35218; assay: Carbapenem test, Triton fixation buffer and BacUni QuickFISH staining (Example 4); assay type: cell-based; details: FIG. 9; E. coli 35218; 10 μg/ml
Method: (§2) An isolated colony from an overnight Tryptocase Soy Agar (TSA) plate for each bacteria was suspended in 1 ml Tryptocase Soy Broth (TSB) in a 5 ml BD polystyrene round bottom tube. TSB cultures were incubated at 37° C. for 1.5 hours shaking. […] of each stationary-phase culture were transferred to 2 ml Eppendorf microcentrifuge tubes containing 500 μl of Normal Saline (BD); or 500 μl Normal Saline with imipenem, ertapenem, or meropenem at a concentration of […], […], or 40 μg/ml (26.67 μg/ml final concentration). Tubes were inverted then incubated at 37° C. stagnant for thirty minutes. Then 10 μl from each tube was pipetted onto plain glass slide on a 55° C. heat block, followed by 25 μl fixation buffer (0.5% T×100, 100 mM Tris pH 9, 24% Ethanol, and 10 mM NaCl); slide is incubated until sample is dry. Ten μl of BacUni QuickFISH hybridization buffer was added to each slide followed by a 22×22 mm coverslip. The slide was then incubated at 55° C. for 15 minutes. The slides were viewed on a fluorescence microscope 60× oil immersion on Dual TxR/FITC. Images were taken with a 1 second exposure.
(§3) The control fixation in this experiment has all the same components, except no Triton X-100. This was done to assess whether the selective lysis step is required to resolve a difference between susceptible and resistant bacteria.

[6] = tested on: K. pneumoniae strain 13882; assay: as above; assay type: cell-based; details: K. pneumoniae 13882
Method: as §2, §3

[7] = tested on: K. pneumoniae strain BAA2146 NDM+; assay: as above; assay type: cell-based
Method: as §2, §3

[8] = tested on: K. pneumo 13882 (NDM−); assay: Selective lysis test, flow cytometry cell count (Example 5); assay type: cell-based, K. pneumoniae; set-up: key to R or S: R: meropenem resistant strain; S: meropenem sensitive strain
Method: (§4) An isolated colony from overnight Tryptocase Soy Agar (TSA) plate for each bacteria was suspended in 1 ml Tryptocase Soy Broth (TSB) in a 5 ml BD polystyrene round bottom tube. TSB cultures were incubated at 37° C. overnight. Ten μl of overnight culture was inoculated into 1 ml TSB and incubated shaking at 37° C. for three hours. Two 250 μl aliquots of each log-phase culture were transferred to two 2 ml Eppendorf microcentrifuge tubes. One tube contained 500 μl of Normal Saline (BD); the second tube contained 504.1 Normal Saline with meropenem at 10 μg/ml. Tubes were inverted then incubated at 37° C. stagnant for thirty minutes. An aliquot was removed at this point for flow cytometry measurement of the total cell count. Then 250 μl lysis buffer (0.5% SDS in PSB) was added to each tube and each tube was vortexed for 5 seconds. Post incubation, all tubes were spun at 10000 G for 5 minutes. Supernatant was decanted and the pellet resuspended in Normal Saline. Tubes were vortexed.
(§5) Re-suspended pellets were then diluted 20 times into a solution of 10 mM Tris-HCl pH=7.6, containing 2.5 μM SYTO 9 (stain permeable to all bacterial cells). Stained bacterial cells were analyzed by flow cytometry using the Guava EasyCyte™ Mini System equipped with a 488 nm diode laser, capillary flow cell, forward and side scatter detectors and fluorescence (green, yellow and red) detectors. Flow cytometry dot plots were acquired with CytoSoft (Guava ExpressPlus) software and cell counts were obtained.

[9] = tested on: K. pneumo BAA2146 (NDM+); assay: as above; assay type: cell-based, K. pneumoniae; set-up: key to R or S: R: meropenem resistant strain; S: meropenem sensitive strain
Method: as §4, §5

[10] = tested on: strains previously considered susceptible to meropenem; assay: Selective lysis OD600 test, summary over the strains of Table 1; assay type: cell-based, Enterobacteriaceae; details: 13 of 14 strains of Table 1
Method: as §1
Species abbreviations: sp. […]

[11] = OD600 vs control without meropenem
[12] = meropenem 10 μg/ml, 30 min, SDS lysis buffer + vortex
[13] = K. pneumo 13882 (NDM−), 10 μg/ml Meropenem, Post-lysis + spin
[14] = K. pneumo BAA2146 (NDM+), 10 μg/ml Meropenem, Post-lysis + spin

Compound: C[C@@H](O)[C@H]1C(=O)N2C(C(=O)O)=C(S[C@@H]3CN[C@H](C(=O)N(C)C)C3)[C@H](C)[C@H]12 [meropenem]
- R or S [1]: S (a percentage change of greater than about 85% indicates a strain is susceptible)
- % Change [1, 11]: 95%
- Mero OD600 [1, 12]: 0.097
- R or S [2]: S (a percentage change of greater than about 85% indicates a strain is susceptible)
- % Change [2, 11]: 94%
- Mero OD600 [2, 12]: 0.065
- R or S [3]: S (a percentage change of greater than about 85% indicates a strain is susceptible)
- % Change [3, 11]: 99%
- Mero OD600 [3, 12]: 0.015
- R or S [4]: S (a percentage change of greater than about 85% indicates a strain is susceptible)
- % Change [4, 11]: 71%
- Mero OD600 [4, 12]: 0.259
- test result (susceptibility or resistance) by BacUni QuickFISH staining [5]: detect susceptibility
- BacUni QuickFISH stained intact cells after meropenem and fixation buffer ([6]; FIG. 7, 10 μg/ml meropenem, fixation buffer with 0.5% Triton X-100): near complete absence of BacUni QuickFISH™ stained intact cells
- test result (susceptibility or resistance) by BacUni QuickFISH staining ([6]; FIG. 10, 10 μg/ml): detect susceptibility
- BacUni QuickFISH stained intact cells after meropenem and fixation buffer ([7]; FIG. 8, 10 μg/ml meropenem, fixation buffer with 0.5% Triton X-100): near complete absence of BacUni QuickFISH™ stained intact cells
- test result (susceptibility or resistance) by BacUni QuickFISH staining ([7]; FIG. 11, 10 μg/ml): detect resistance
- Cell Number/ml [8, 13]: 241000 mL⁻¹
- R or S [8, 13]: S
- Cell Number/ml ([8]; K. pneumo 13882 (NDM−), 10 μg/ml Meropenem, Pre-lysis): 2.38e+06 mL⁻¹
- reduction in cell number after lysis and centrifugation ([8]; K. pneumoniae 13882 (NDM−), meropenem treated sample, post-lysis vs pre-lysis): 90%
- Cell Number/ml [9, 14]: 2.83e+06 mL⁻¹
- R or S [9, 14]: R
- Cell Number/ml ([9]; K. pneumo BAA2146 (NDM+), 10 μg/ml Meropenem, Pre-lysis): 3.04e+06 mL⁻¹
- reduction in cell number after lysis and centrifugation ([9]; K. pneumoniae BAA2146 (NDM+), meropenem treated sample, post-lysis vs pre-lysis): 7%
- decrease of OD600 turbidity vs negative control [10]: at least 88%
